Like-named read-outs stand apart in the source and are kept apart here.
Test system: Pseudomonas aeruginosa isolates b1121, b2631, b3144
Assay: Tobramycin MIC of the challenge isolates
Format: cell-based
Conditions: read-out: TOB MIC

`NC[C@H]1O[C@H](O[C@H]2[C@H](O)[C@@H](O[C@H]3O[C@H](CO)[C@@H](O)[C@H](N)[C@H]3O)[C@H](N)C[C@@H]2N)[C@H](N)C[C@@H]1O` [TOB, tobramycin] gave an MIC (isolate b1121, Respiratory) of 0.5 µg/mL, an MIC (isolate b2631, CF isolate) of 0.5 µg/mL and an MIC (isolate b3144, CF isolate) of 2 µg/mL.

Reference: patent US20240011041A1, “PHAGE COMPOSITIONS FOR P[…]-CAS SYSTEMS AND METHODS OF USE THEREOF” (priority 2020, published 2024)
